Assay results taken from article PMC9244909 (ACS Omega, 2022).
Where “and” joins values, the source holds several entries; their conditions need not be identical. Identical values can stand only once.

How the values were obtained:
[1] = system: SARS-CoV-2 VOC-202012/01 strain; format: cell-based
[2] = cited from earlier work

Row | SMILES | 100% CPE inhibitory concentration (CPEIC100) [1] | time to maximal effectiveness on the coronavirus ([1]; after starting treatment) [h] | plasma half-life [2] [h] | time of peak plasma concentrations [2] [h]
1 | O=c1nc[nH]c2c1ncn2[C@H]1CC[C@@H](CO)O1 [DDI, 9-[(2R,5S)-5-(hydroxymethyl)oxolan-2-yl]-3H-purin-6-one] | 8.95 µM and 8.95 ± 0.52 µM | 12 to 24 | ≤ 2 | 0.5 to 1.5
2 | N#C[C@@]1(c2ccc3c(N)ncnn23)O[C@H](CO)[C@@H](O)[C@H]1O [GS-441524] | 17.40 µM and 17.40 ± 1.83 µM | – | – | –
3 | CCC(CC)COC(=O)[C@H](C)N[P@](=O)(OC[C@H]1O[C@@](C#N)(c2ccc3c(N)ncnn23)[C@H](O)[C@@H]1O)Oc1ccccc1 [remdesivir] | 25.17 µM and 25.17 ± 2.51 µM | – | – | –
